According to US12077503B2, “Substituted cyclic amides and their use as herbicides” (FMC CORPORATION, priority 2015, dated 2024):
Like-named read-outs stand apart in the source and are kept apart here.

Assays:
Assay in all cases: Test A preemergence
Type in all cases: in vivo
[1] = tested on: Kochia (Kochia scoparia); conditions: Bassia scoparia, pre-emergence, 240 h; for pest or weed control at 125 g/ha: 125 g ai/ha; for pest or weed control at 500 g/ha: 500 g ai/ha
In short: (§1)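 Compounds were formulated in a non-phytotoxic solvent mixture with surfactant and applied as a preemergence directed soil spray after seeding, or sprayed postemergence over plants 2 to 10 cm tall at the one- to two-leaf stage. Evaluation after about 10 d compared treated with untreated controls, using a scale from 0 (no effect) to 100 (complete control).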

[2] = tested on: barnyardgrass (Echinochloa crus-galli); conditions: Echinochloa crus-galli, pre-emergence, 240 h; for pest or weed control at 125 g/ha: 125 g ai/ha; for pest or weed control at 500 g/ha: 500 g ai/ha
In short: as §1

[3] = tested on: giant foxtail (Setaria faberii); conditions: Setaria faberi, pre-emergence, 240 h; for pest or weed control at 125 g/ha: 125 g ai/ha; for pest or weed control at 500 g/ha: 500 g ai/ha
In short: as §1

[4] = tested on: ragweed (common ragweed, Ambrosia elatior); conditions: Ambrosia artemisiifolia, pre-emergence, 240 h; for pest or weed control at 125 g/ha: 125 g ai/ha; for pest or weed control at 500 g/ha: 500 g ai/ha
In short: as §1

[5] = tested on: ryegrass, Italian (Italian ryegrass, Lolium multiflorum); conditions: Lolium multiflorum, pre-emergence, 240 h; for pest or weed control at 125 g/ha: 125 g ai/ha; for pest or weed control at 500 g/ha: 500 g ai/ha
In short: as §1

[6] = preemergence, 0 to 100 scale where 0 is no effect and 100 is complete control, read-out: Kochia plant response rating
[7] = Preemergence, visual injury vs untreated controls after approximately 10 d, read-out: Kochia plant response rating (0 to 100 scale where 0 is no effect and 100 is complete control)
[8] = preemergence, 0 to 100 scale where 0 is no effect and 100 is complete control, read-out: Barnyardgrass plant response rating
[9] = Preemergence, visual injury vs untreated controls after approximately 10 d, read-out: Barnyardgrass plant response rating (0 to 100 scale where 0 is no effect and 100 is complete control)
[10] = preemergence, 0 to 100 scale where 0 is no effect and 100 is complete control, read-out: Foxtail, Giant plant response rating
[11] = Preemergence, visual injury vs untreated controls after approximately 10 d, read-out: Foxtail, Giant plant response rating (0 to 100 scale where 0 is no effect and 100 is complete control)
[12] = preemergence, 0 to 100 scale where 0 is no effect and 100 is complete control, read-out: Ragweed plant response rating
[13] = Preemergence, visual injury vs untreated controls after approximately 10 d, read-out: Ragweed plant response rating (0 to 100 scale where 0 is no effect and 100 is complete control)
[14] = preemergence, 0 to 100 scale where 0 is no effect and 100 is complete control, read-out: Ryegrass, Italian plant response rating
[15] = Preemergence, visual injury vs untreated controls after approximately 10 d, read-out: Ryegrass, Italian plant response rating (0 to 100 scale where 0 is no effect and 100 is complete control)
[16] = preemergence, 0 to 100 scale where 0 is no effect and 100 is complete control, approx. 10 d, read-out: Kochia plant response rating
[17] = preemergence, 0 to 100 scale where 0 is no effect and 100 is complete control, approx. 10 d, read-out: Barnyardgrass plant response rating
[18] = preemergence, visual injury rating about 10 d after treatment, 0 to 100 scale (0 no effect, 100 complete control), read-out: Barnyardgrass plant response rating
[19] = preemergence, 0 to 100 scale where 0 is no effect and 100 is complete control, approx. 10 d, read-out: Foxtail, Giant plant response rating
[20] = preemergence, 0 to 100 scale where 0 is no effect and 100 is complete control, approx. 10 d, read-out: Ragweed plant response rating
[21] = preemergence, 0 to 100 scale where 0 is no effect and 100 is complete control, approx. 10 d, read-out: Ryegrass, Italian plant response rating
[22] = Preemergence, visual injury rating after approximately 10 d, read-out: Kochia plant response rating (0 to 100 scale, 0 is no effect, 100 is complete control)
[23] = preemergence, visual injury rating about 10 d after treatment, 0 to 100 scale (0 no effect, 100 complete control), read-out: Kochia plant response rating
[24] = Preemergence, visual injury rating after approximately 10 d, read-out: Barnyardgrass plant response rating (0 to 100 scale, 0 is no effect, 100 is complete control)
[25] = Preemergence, visual injury rating after approximately 10 d, read-out: Foxtail, Giant plant response rating (0 to 100 scale, 0 is no effect, 100 is complete control)
[26] = preemergence, visual injury rating about 10 d after treatment, 0 to 100 scale (0 no effect, 100 complete control), read-out: Foxtail, Giant plant response rating
[27] = Preemergence, visual injury rating after approximately 10 d, read-out: Ragweed plant response rating (0 to 100 scale, 0 is no effect, 100 is complete control)
[28] = preemergence, visual injury rating about 10 d after treatment, 0 to 100 scale (0 no effect, 100 complete control), read-out: Ragweed plant response rating
[29] = Preemergence, visual injury rating after approximately 10 d, read-out: Ryegrass, Italian plant response rating (0 to 100 scale, 0 is no effect, 100 is complete control)
[30] = preemergence, visual injury rating about 10 d after treatment, 0 to 100 scale (0 no effect, 100 complete control), read-out: Ryegrass, Italian plant response rating

| Structure (SMILES) | pest or weed control at 125 g/ha [1, 16] | pest or weed control at 125 g/ha [2, 17] | pest or weed control at 500 g/ha [2, 18] | pest or weed control at 125 g/ha [3, 19] | pest or weed control at 125 g/ha [4, 20] | pest or weed control at 125 g/ha [5, 21] | pest or weed control at 125 g/ha [1, 22] | pest or weed control at 500 g/ha [1, 23] | pest or weed control at 125 g/ha [2, 24] | pest or weed control at 125 g/ha [3, 25] | pest or weed control at 500 g/ha [3, 26] | pest or weed control at 125 g/ha [4, 27] | pest or weed control at 500 g/ha [4, 28] | pest or weed control at 125 g/ha [5, 29] | pest or weed control at 500 g/ha [5, 30] | other results |
| --- | --- | --- | --- | --- | --- | --- | --- | --- | --- | --- | --- | --- | --- | --- | --- | --- |
| CN1C[C@H](c2cccc(F)c2)[C@@H](C(=O)Nc2ccccc2S(C)(=O)=O)C1=O [Compound 824] | – | – | – | – | – | – | – | – | – | – | – | – | – | – | – | pest or weed control at 125 g/ha [1, 6]: 60%; pest or weed control at 500 g/ha [1, 7]: 70%; pest or weed control at 125 g/ha [2, 8]: 90%; pest or weed control at 500 g/ha [2, 9]: 100%; pest or weed control at 125 g/ha [3, 10]: 90%; pest or weed control at 500 g/ha [3, 11]: 100%; pest or weed control at 125 g/ha [4, 12]: 20%; pest or weed control at 500 g/ha [4, 13]: 50%; pest or weed control at 125 g/ha [5, 14]: 20%; pest or weed control at 500 g/ha [5, 15]: 40% |
| CN1C[C@H](c2cscn2)[C@@H](C(=O)Nc2ccccc2F)C1=O [Compound 1112] | 0% | 0% | 0% | 0% | 0% | 0% | – | – | – | – | – | – | – | – | – | pest or weed control at 500 g/ha [1, 6]: 0%; pest or weed control at 500 g/ha [3, 10]: 0%; pest or weed control at 500 g/ha [4, 12]: 0%; pest or weed control at 500 g/ha [5, 14]: 0% |
| O=C(Nc1ccccc1C(F)(F)F)[C@H]1C(=S)NC[C@@H]1c1ccc(C(F)(F)F)cc1 (racemic) [Compound 1049] | – | – | 70% | – | – | – | 30% | 70% | 30% | 80% | 90% | 20% | 40% | 0% | 30% | – |
| Cc1cc([C@H]2CN(C)C(=O)[C@@H]2C(=O)Nc2ccc(F)cc2F)ccc1Br [Compound 1100] | 50% | 90% | 90% | 90% | 0% | 0% | – | 60% | – | – | 90% | – | 0% | – | 30% | – |
| CN1C[C@H](c2cc(F)cc(F)c2)[C@@H](C(=O)Nc2cc(O)ccc2F)C1=O [Compound 992] | – | – | 0% | – | – | – | 0% | 0% | 0% | 0% | 0% | 0% | 0% | 0% | 0% | – |
| Cc1c(F)cccc1NC(=O)[C@H]1C(=O)NC[C@@H]1c1cc(F)c(F)c(F)c1 [Compound 1125] | 50% | 90% | – | 90% | 0% | 0% | – | – | – | – | – | – | – | – | – | pest or weed control at 500 g/ha [1, 6]: 80%; pest or weed control at 500 g/ha [2, 8]: 90%; pest or weed control at 500 g/ha [3, 10]: 100%; pest or weed control at 500 g/ha [5, 14]: 60% |
| Cc1cc([C@H]2CNC(=O)[C@@H]2C(=O)Nc2ccccc2Cl)ccc1C(F)(F)F [Compound 1044] | – | – | 90% | – | – | – | 0% | 50% | 90% | 70% | 90% | 0% | 30% | 0% | 50% | – |
| Cc1ccc([C@H]2CN(C)C(=O)[C@@H]2C(=O)Nc2ccccc2F)cc1C [Compound 1038] | – | – | 100% | – | – | – | 80% | 80% | 100% | 100% | 100% | 20% | 70% | 30% | 70% | – |
| CN1C[C@H](c2cccc(C3CC3)c2)[C@@H](C(=O)Nc2cccc(F)c2F)C1=O [Compound 816] | – | – | – | – | – | – | – | – | – | – | – | – | – | – | – | pest or weed control at 125 g/ha [1, 6]: 60%; pest or weed control at 500 g/ha [1, 7]: 80%; pest or weed control at 125 g/ha [2, 8]: 90%; pest or weed control at 500 g/ha [2, 9]: 90%; pest or weed control at 125 g/ha [3, 10]: 90%; pest or weed control at 500 g/ha [3, 11]: 90%; pest or weed control at 125 g/ha [4, 12]: 20%; pest or weed control at 500 g/ha [4, 13]: 50%; pest or weed control at 125 g/ha [5, 14]: 70%; pest or weed control at 500 g/ha [5, 15]: 80% |
| CN1C[C@H](c2cc(F)cc(F)c2)[C@@H](C(=O)Nc2ccncc2F)C1=O [Compound 1095] | 0% | 0% | 60% | 0% | 0% | 0% | – | 0% | – | – | 90% | – | 0% | – | 0% | – |
| CCOc1ccc([C@H]2CN(C)C(=O)[C@@H]2C(=O)Nc2cccc(F)c2F)cc1 [Compound 904] | – | – | – | – | – | – | – | – | – | – | – | – | – | – | – | pest or weed control at 125 g/ha [1, 6]: 90%; pest or weed control at 500 g/ha [1, 7]: 90%; pest or weed control at 125 g/ha [2, 8]: 90%; pest or weed control at 500 g/ha [2, 9]: 90%; pest or weed control at 125 g/ha [3, 10]: 90%; pest or weed control at 500 g/ha [3, 11]: 90%; pest or weed control at 125 g/ha [4, 12]: 0%; pest or weed control at 500 g/ha [4, 13]: 0%; pest or weed control at 125 g/ha [5, 14]: 0%; pest or weed control at 500 g/ha [5, 15]: 0% |
